The target in this experiment is HIV-1 protease (Human immunodeficiency virus type 1 group M subtype B, UniProt P04585). Nature of the experiment: Inhibition of microbial expressed viral protease (HIV-1 protease), method of Toth and Marshall. It is filed as biochemical. The procedure:
Biological Assay for Inhibition of Microbial Expressed Viral Protease
The inhibition constants against HIV-1 protease were measured using the method described by M. V. Toth and G. R. Marshall, Int. J. Peptide protein Res., 1990, 544. The method described M. W. Pennington et al., Peptides 1990, Gimet, E. and D. Andrew, Eds., Escom; Leiden, Netherlands (1990) may also be used. The potency is measured as IC50in μM. The person of skill would accept these tests as predictive of the compounds' utility in vivo to treat HIV infected patients.
For the compound `Cc1ccc(CC[C@@H](O)[C@H](Cc2ccccc2)NC(=O)COc2c(C)cccc2C)c(C(=O)NC(C)(C)C)c1` [Example 001237], the IC50 was less than 0.1 µM.
`CC(C)(C)NC(=O)c1ccccc1CC[C@@H](O)[C@H](Cc1ccccc1)NC(=O)CCC(=O)c1ccc(F)cc1` [Example 000973] registered an IC50 of less than 0.1 µM.
For the compound `CC(C)(C)NC(=O)c1ccccc1CC[C@@H](O)[C@H](Cc1ccccc1)NC(=O)NC1CCCCC1` [Example 000882], the IC50 is more than 10 µM.
The value for `Cc1ccc(C(=O)C=CC(=O)NC(Cc2ccccc2)C(O)CCc2ccccc2C(=O)NC(C)(C)C)cc1` (centres unmarked) [Example 000950] was more than 10 µM; that for `Cc1nocc1C(=O)N[C@@H](Cc1ccccc1)[C@H](O)CCc1ccccc1C(=O)NC(C)(C)C` [Example 001154] was 0.1 to 10 µM; that for `CC(C)(C)NC(=O)c1ccccc1CC[C@@H](O)[C@H](Cc1ccccc1)NC(=O)CNc1ccccc1` [Example 001192] was 0.1 to 10 µM.
The value for `CC(C)(C)NC(=O)c1ccccc1CC[C@@H](O)[C@H](Cc1ccccc1)NC(=O)COc1c(F)cccc1F` [Example 001214] was less than 0.1 µM; that for `CC(C)(C)NC(=O)c1ccccc1CC[C@@H](O)[C@H](Cc1ccccc1)NS(=O)(=O)c1ccc(C#N)cc1` [Example 000876] was 0.1 to 10 µM.
The figure for `CC1CCCCC1OCC(=O)NC(Cc1ccccc1)C(O)CCc1ccccc1C(=O)NC(C)(C)C` (centres unmarked) [Example 001229] is 0.1 to 10 µM; for `Cc1cccc(Cl)c1OCC(=O)N[C@@H](Cc1ccccc1)[C@H](O)CCc1ccccc1C(=O)NC(C)(C)C` [Example 001215] it is less than 0.1 µM; for `C[C@H](O)C(=O)N[C@@H](Cc1ccccc1)[C@H](O)CCc1ccccc1C(=O)NC(C)(C)C` [Example 000242] it is 0.1 to 10 µM.
`CC(C)CCNC(=O)c1ccccc1CC[C@@H](O)[C@H](Cc1ccccc1)NC(=O)OC(C)(C)C` [Example 000766]: the IC50 fell in the range of 0.1 to 10 µM.
As to `CCc1ccc(NC(=O)N[C@@H](Cc2ccccc2)[C@H](O)CCc2ccccc2C(=O)NC(C)(C)C)cc1` [Example 000893], the IC50 is 0.1 to 10 µM.
In turn, `CC(C)(C)NC(=O)c1ccccc1CC[C@@H](O)[C@H](Cc1ccccc1)NC(=O)N1CCOCC1` [Example 001008] displayed an IC50 of 0.1 to 10 µM.
The figure for `CC(C)(C)NC(=O)c1ccccc1CC[C@@H](O)[C@H](Cc1ccccc1)NC(=O)COc1c(Cl)cccc1Cl` [Example 001203] is 0.1 to 10 µM.
Consider `CC(C)(C)NC(=O)c1ccccc1CC[C@@H](O)[C@H](Cc1ccccc1)NS(=O)(=O)c1ccc(Br)c(Cl)n1` [Example 000879], for which the IC50 was in the range of 0.1 to 10 µM.
`CCNC(=O)N[C@@H](Cc1ccccc1)[C@H](O)CCc1ccccc1C(=O)NC(C)(C)C` [Example 000771] registered a 50% inhibitory concentration (IC50) of 0.1 to 10 µM.
The compound `CC(C)CC(O)C(=O)NC(Cc1ccccc1)C(O)CCc1ccccc1C(=O)NC(C)(C)C` (centres unmarked) [Example 001219] gave an IC50 of 0.1 to 10 µM.
In turn, `CC(C)(C)NC(=O)c1ccccc1CC[C@@H](O)[C@H](Cc1ccccc1)NC(=O)Cc1ccccc1` [Example 00762] yielded an IC50 of 0.1 to 10 µM.
For the compound `Cc1cc(CO)cc(C)c1OCC(=O)N[C@@H](Cc1ccccc1)[C@H](O)CCc1ccccc1C(=O)NC(C)(C)C` [Example 001267], the IC50 was less than 0.1 µM.
In turn, `Cc1cccc(C)c1C(=O)N[C@@H](Cc1ccccc1)[C@H](O)CCc1ccccc1C(=O)NC(C)(C)C` [Example 000951] had an IC50 of less than 0.1 µM.
Take `COc1cccc(C)c1OCC(=O)N[C@@H](Cc1ccccc1)[C@H](O)CCc1ccccc1C(=O)NC(C)(C)C` [Example 001213]: the IC50 was less than 0.1 µM.
The value for `Cc1cccc(OCC(=O)N[C@@H](Cc2ccccc2)[C@H](O)CCc2ccccc2C(=O)NC(C)(C)C)c1` [Example 001185] was 0.1 to 10 µM.
In the case of `CC(C)(C)NC(=O)c1ccccc1CC[C@@H](O)[C@H](Cc1ccccc1)NC(=S)Oc1ccc(F)cc1` [Example 001017], the 50% inhibitory concentration (IC50) is more than 10 µM.
On to `CC(C)(C)NC(=O)c1ccccc1CC[C@@H](O)[C@H](Cc1ccccc1)NC(=O)c1ccc(N)cc1Cl` [Example 000944], for which the IC50 was more than 10 µM.
For `C=CCc1cccc(C)c1OCC(=O)N[C@@H](Cc1ccccc1)[C@H](O)CCc1ccccc1C(=O)NC(C)(C)C` [Example 001206], the IC50 was 0.1 to 10 µM.
In turn, `CC(C)S(=O)(=O)N[C@@H](Cc1ccccc1)[C@H](O)CCc1ccccc1C(=O)NC(C)(C)C` [Example 000881] showed an IC50 of 0.1 to 10 µM.
The figure for `CC(C)(C)NC(=O)c1ccccc1CC[C@@H](O)[C@H](Cc1ccccc1)NC(=O)c1cc(N)ccc1Cl` [Example 000971] is 0.1 to 10 µM; for `CCOC(=O)NC(Cc1ccccc1)C(O)C=Cc1ccccc1C(=O)NC(C)(C)C` (centres unmarked) [Example 000207] it is 0.1 to 10 µM; for `Cc1ccc(C)c(OCC(=O)N[C@@H](Cc2ccccc2)[C@H](O)CCc2ccccc2C(=O)NC(C)(C)C)c1C` [Example 001201] it is less than 0.1 µM.
The value for `Cc1cccc(C)c1OCC(=O)N[C@@H](Cc1ccccc1)[C@H](O)CCc1cccc(C)c1C(=O)NC(C)(C)C` [Example 001249] was less than 0.1 µM.
The value for `CC(C)(C)NC(=O)c1ccccc1CC[C@@H](O)[C@H](Cc1ccccc1)NS(=O)(=O)c1cccc2nonc12` [Example 001012] was 0.1 to 10 µM; that for `CC(C)CNC(=O)c1ccccc1CC[C@@H](O)[C@H](Cc1ccccc1)NC(=O)OC(C)(C)C` [Example 000156] was less than 0.1 µM; that for `CC(C)(C)NC(=O)c1ccccc1CC[C@@H](O)[C@H](Cc1ccccc1)NC(=O)c1ccccc1C(=O)c1ccccc1` [Example 00968] was 0.1 to 10 µM.
In turn, `Cc1cc(C(=O)N[C@@H](Cc2ccccc2)[C@H](O)CCc2ccccc2C(=O)NC(C)(C)C)cc(C)c1OCC(=O)O` [Example 001278] came in with an IC50 of 0.1 to 10 µM.
The figure for `COc1ccc(C(=O)c2ccccc2C(=O)N[C@@H](Cc2ccccc2)[C@H](O)CCc2ccccc2C(=O)NC(C)(C)C)c(O)c1` [Example 001034] is 0.1 to 10 µM.
In turn, `CC(C)(C)NC(=O)c1ccccc1CC[C@@H](O)[C@H](Cc1ccccc1)NC(=O)c1cc(C(F)(F)F)ccc1Cl` [Example 001036] registered an IC50 of more than 10 µM.
The figure for `Cc1cc([N+](=O)[O-])cc(C)c1OCC(=O)N[C@@H](Cc1ccccc1)[C@H](O)CCc1ccccc1C(=O)NC(C)(C)C` [Example 001211] is 0.1 to 10 µM.
The value for `CC(C)(C)NC(=O)c1ccccc1CC[C@@H](O)[C@H](Cc1ccccc1)NC(=O)CCc1ccccc1` [Example 000763] was 0.1 to 10 µM.
The value for `CC1CCCC(C)C1OCC(=O)NC(Cc1ccccc1)C(O)CCc1ccccc1C(=O)NC(C)(C)C` (centres unmarked) [Example 001230] was 0.1 to 10 µM; that for `Cc1ccc(OCC(=O)N[C@@H](Cc2ccccc2)[C@H](O)CCc2ccccc2C(=O)NC(C)(C)C)cc1` [Example 001186] was 0.1 to 10 µM; that for `CCCCCNC(=O)N[C@@H](Cc1ccccc1)[C@H](O)CCc1ccccc1C(=O)NC(C)(C)C` [Example 000890] was 0.1 to 10 µM.
In the case of `CC(C)(C)NC(=O)c1ccccc1CC[C@@H](O)[C@H](Cc1ccccc1)NC(=O)CSc1ccccc1` [Example 001190], the IC50 was in the range of 0.1 to 10 µM.
In turn, `CC(C)(C)NC(=O)c1ccccc1CC[C@@H](O)[C@H](Cc1ccccc1)NC(=O)COc1cccnc1Cl` [Example 001268] showed an IC50 of 0.1 to 10 µM.
With `Cc1cc(Br)cc(Cl)c1OCC(=O)N[C@@H](Cc1ccccc1)[C@H](O)CCc1ccccc1C(=O)NC(C)(C)C` [Example 001216], the IC50 fell in the range of 0.1 to 10 µM.
`CC(C)(C)NC(=O)c1ccccc1CC[C@@H](O)[C@H](Cc1ccccc1)NC(=O)c1cc(F)cc(F)c1` [Example 000948] yielded an IC50 of more than 10 µM.
In turn, `CC(C)NC(=O)N[C@@H](Cc1ccccc1)[C@H](O)CCc1ccccc1C(=O)NC(C)(C)C` [Example 000892] displayed an IC50 of 0.1 to 10 µM.
The value for `Cc1cc(C(=O)O)ccc1OCC(=O)N[C@@H](Cc1ccccc1)[C@H](O)CCc1ccccc1C(=O)NC(C)(C)C` [Example 001279] was 0.1 to 10 µM; that for `CCCCNC(=O)c1ccccc1CC[C@@H](O)[C@H](Cc1ccccc1)NC(=O)OC(C)(C)C` [Example 000344] was 0.1 to 10 µM.
The compound `Cc1c(O)cccc1C(=O)N[C@@H](Cc1ccccc1)[C@H](O)CCc1ccccc1C(=O)NC(C)(C)C` [Example 000972] displayed an IC50 of less than 0.1 µM.
The compound `CC(C)(C)NC(=O)c1ccccc1CC[C@@H](O)[C@H](Cc1ccccc1)NC(=O)c1ccccc1C(F)(F)F` [Example 001042] displayed an IC50 of 0.1 to 10 µM.
The compound `COc1cccc(OC)c1C(=O)N[C@@H](Cc1ccccc1)[C@H](O)CCc1ccccc1C(=O)NC(C)(C)C` [Example 000966] showed a half-maximal inhibitory concentration (IC50) of 0.1 to 10 µM.
`CC(C)(C)NC(=O)c1ccccc1CC[C@@H](O)[C@H](Cc1ccccc1)NC(=O)c1c(F)cccc1F` [Example 000969] had an IC50 of 0.1 to 10 µM.
The figure for `CC(C)(C)NC(=O)c1ccccc1CC[C@@H](O)[C@H](Cc1ccccc1)NC(=O)c1ccc(C(=O)c2ccccc2)cc1` [Example 001047] is 0.1 to 10 µM; for `CC(C)(C)NC(=O)c1ccccc1CC[C@@H](O)[C@H](Cc1ccccc1)NC(=O)c1cc(Cl)cc(Cl)c1` [Example 000967] it is 0.1 to 10 µM.
The value for `CC(C)(C)NC(=O)c1ccccc1CC[C@@H](O)[C@H](Cc1ccccc1)NC(=O)c1ccc(Br)c(C(=O)O)c1` [Example 001035] was 0.1 to 10 µM; that for `CC(C)(C)NC(=O)c1ccccc1CC[C@@H](O)[C@H](Cc1ccccc1)NC(=O)COc1c(Br)cc(F)cc1Br` [Example 001226] was 0.1 to 10 µM.
Take `CC(C)(C)NC(=O)c1ccccc1CC[C@@H](O)[C@H](Cc1ccccc1)NC(=O)COc1ccc2ccccc2c1` [Example 000760]: the half-maximal inhibitory concentration (IC50) lay in the range of 0.1 to 10 µM.
Compound `COc1cccc(OC)c1OCC(=O)N[C@@H](Cc1ccccc1)[C@H](O)CCc1ccccc1C(=O)NC(C)(C)C` [Example 001210] registered an IC50 of 0.1 to 10 µM.

What is called IC50 is the point on the concentration scale where inhibition reaches its midpoint. A high value points to weaker potency in that assay.

These data come from patent US6696494B2, “α-hydroxyarylbutanamine inhibitors of aspartyl protease” (Enanta Pharmaceuticals, Inc., priority 2001, dated 2004).
